What was measured:
[1] = system: normal tissue (skin and bone marrow); test: Adjuvant vitamin C infusions with radiation therapy: radiation tolerance of normal tissue; assay type: in vivo
cancer patients [2] = details: high-dose vitamin C therapy, case reports; cited from earlier work
tumor cell lines = details: in certain concentrations; cited from earlier work
normal cell lines = details: in the concentrations cytotoxic to tumor cell lines; cited from earlier work
terminal cancer patients = details: 100 terminal cancer patients, 10 g vitamin C orally each day; cited from earlier work
[3] = system: metastatic breast cancer and massive bone metastases; test: Case 2: vitamin C infusions in a patient with metastatic breast cancer and bone metastases, with concomitant chemotherapy; assay type: in vivo, human; details: ten infusions of 7.5 g vitamin C each
[4] = Combination therapy of cytostatics with vitamin C: loss of cytostatic effect; details: any of the cytostatics investigated
Text: The side effects of chemotherapy are also attributed to an increase in the levels of free radicals in many tissues.

skin metastases = test: Case 1: vitamin C infusions in a patient with breast carcinoma, local recurrences and skin metastases; assay type: in vivo, human; details: vitamin C infusions of 7.5 g per infusion
cancer patients [5] = details: intravenous 0.5 to 10 g/day, then oral 10 to 30 g, cited from earlier work
[6] = Animal experiments: combination with adriamycin, survival time
[7] = intravenous infusion of 7.5 g vitamin C before and after each radiation

## O=C1O[C@H]([C@@H](O)CO)C(O)=C1O [vitamin C, ascorbic acid]
[1]; [7]
  radioprotective effect on bone marrow: greatly improved
  skin reactions accompanying radiation: can be prevented
[1]; vitamin C infusions, without increasing the radiation dose required to remove the tumors
  increase of radiation tolerance of normal tissue: about 20%
Cancer patients [2]
  general condition and remissions: improvement in general condition and spontaneous remissions
Tumor cell lines
  effect on tumor cell lines: cytotoxic effect
Normal cell lines
  growth of normal cell lines: not influenced
Terminal cancer patients
  survival time versus control group: longer than that of the control group
[3]
  pain caused by the bone metastases: great relief from the pain
[3]; concomitant chemotherapy
  blood picture (leukocytes and platelets): definite improvement in the blood picture (stabilization of leukocytes and platelets)
[4]
  loss of effect of the cytostatics: no loss of effect
Skin metastases
  comparison with local-acting cytostatic administered previously: superior to the local-acting cytostatic administered previously
  effect on skin metastases: remission of the skin metastases
Cancer patients [5]
  general well-being and Karnofsky scale: improvement in general well-being and the Karnofsky scale
  pain in skeletal metastasis: relief from pain in cases of skeletal metastasis
  protein tumor markers in the serum: decline in protein tumor markers in the serum
Cancer patients [5]; in favorable cases
  malignant pleural effusions and pulmonary metastases: absorption of malignant pleural effusions and a reduction in the size of pulmonary metastases
[6]
  survival time: prolonged survival time
